{"source": "patent US20080249035A1", "about": "“Polymorph of Clarithromycin (Form V)” (Gruenenthal GmbH, priority 2007, published 2008)", "experiment": "Interconversion tests in acetone (thermodynamic/physical stability of polymorphic forms)", "type": "physicochemical", "experimental": "To investigate physical stability in comparison with the known forms form I and form II, the following experiments were carried out (interconversion tests): • a) about 100 mg of form I and approx. 100 mg of form II were put in a 20 ml vial and suspended in 2.5 ml acetone p.a. • b) about 100 mg of form V and approx. 100 mg of form I were put in a 20 ml vial and suspended in 2.5 ml acetone p.a. • c) about 100 mg of form V and approx. 100 mg of form II were put in a 20 ml vial and suspended in 2.5 ml acetone p.a.\nAll three suspensions were first shaken at room temperature (approx. 20° C.) on a PLS synthesizer at 400 rpm for approx. 2 h. For 20 h the temperature of the suspensions was raised to 40° C. and then left to cool to room temperature (approx. 20° C.) again.\nThen the solids were filtered with suction on a G4 frit, made into a slurry with 0.5 ml acetone p.a., washed, and then dried by suction in an air stream, applying a light vacuum.\nThe crystalline solids were in each case characterized by DSC, XRPD, Raman and TG investigations.", "data": [{"compound": "CC[C@H]1OC(=O)[C@H](C)[C@@H](O[C@H]2C[C@@](C)(OC)[C@@H](O)[C@H](C)O2)[C@H](C)[C@@H](O[C@@H]2O[C@H](C)C[C@H](N(C)C)[C@H]2O)[C@](C)(OC)C[C@@H](C)C(=O)[C@H](C)[C@@H](O)[C@]1(C)O", "note": "[Form I/Form II, clarithromycin]", "values": [{"measurement": "Product (polymorphic form obtained from the starting mixture in the interconversion test)", "setting": "approx. 100 mg of each form suspended in 2.5 ml acetone, approx. 2 h at room temperature (approx. 20° C.), 20 h at 40° C., cooled to room temperature, solids characterized by DSC, XRPD, Raman, TG", "result": "Form II"}]}, {"compound": "CC[C@H]1OC(=O)[C@H](C)[C@@H](O[C@H]2C[C@@](C)(OC)[C@@H](O)[C@H](C)O2)[C@H](C)[C@@H](O[C@@H]2O[C@H](C)C[C@H](N(C)C)[C@H]2O)[C@](C)(OC)C[C@@H](C)C(=O)[C@H](C)[C@@H](O)[C@]1(C)O", "note": "[Form II, clarithromycin]", "values": [{"measurement": "Relative thermodynamic stability of the forms under the test conditions", "setting": "interconversion tests in acetone, 20 to 40° C.", "result": "thermodynamically more stable than form V as well as more stable than form I"}]}]}
